Data taken from publication PMC5645128, “Hydrophobic residues are critical for the helix-forming, hemolytic and bactericidal activities of amphipathic antimicrobial peptide TP4” (PLoS ONE, 2017).
Ends that are not written are not given here.

Format: physicochemical
Experimental: Fig 4 Hydrophobicity and solubility of TP4 in the presence of sarkosyl and LPS. (A) ANS emission spectrum of TP4 in solution containing sarkosyl. TP4 (4 μg) was dissolved in 200 μl of 10 mM sodium phosphate, pH7.4, 0.1 M NaCl, containing various concentrations of sarkosyl (0.075%, w/v, designated as 1x). (B) ANS emission spectrum of TP4 in solution containing LPS. TP4 (4 μg) was dissolved in 200 μl of 10 mM sodium phosphate, pH7.4, containing various amounts of LPS as indicated. ANS was added stepwise to the final concentrations as indicated (lines 1 to 6 at 0, 10, 20, 30, 40 and 50 μM, respectively). Arrows indicate the emission maximum at 470 nm or 520 nm for bound- and free-form ANS, respectively. (C, D) Solubility of TP4 in solution containing either sarkosyl or LPS. TP4 (4 μg) dissolved in 200 μl of respective solution containing sarkosyl or LPS at concentration as indicated was spun at 14,000 x g for 15 min and analyzed by SDS-PAGE/Coomassie blue staining.
Fig 9 OprI-binding ability of TP4-derived peptides. (A) Competition for OprI binding by TP4-derived peptides. […] The gel pellet was analyzed by non-reducing SDS-PAGE/Coomassie blue staining. rOprI, recombinant OprI; S.t, Streptavidin. […] TP4-derived peptides (6 μg each) dissolved in 1x sarkosyl buffer (300 μl) were incubated at 37°C for 10 min, then spun at 14,000 x g for 15 min and analyzed by SDS-PAGE/Coomassie blue staining. […]

With FIHHIIGGLFSAGKAIHRLIRRRRR [TP4] as the sequence, how does the “solubility of TP4 in 1x Sar” value read?
The value was “less than 80 μM”.
